PMC11007962, “First-in-human study of GFH018, a small molecule inhibitor of transforming growth factor-β receptor I inhibitor, in patients with advanced solid tumors” (BMC Cancer, 2024)
Marks after values point to notes of the source that are not given here.

Legend:
[1] = tested on: advanced solid tumors; experiment: Clinical efficacy: tumor response per RECIST 1.1; assay type: in vivo, human
Description: The endpoints for efficacy, including the objective response rate (ORR), disease control rate (DCR), progression-free survival (PFS), and time to progression (TTP), were assessed per RECIST 1.1. Tumor response was evaluated every two treatment cycles until disease progression, start of a new antitumor treatment, consent withdrawal, loss to follow-up, or study termination for other reasons.

[2] = tested on: TGF-β-induced SMAD3 phosphorylation; set-up: method as in doi:10.1158/1538-7445.AM2019-3072; settings: preclinical; cited from earlier work
[3] = tested on: recurrent/metastatic nasopharyngeal carcinoma (R/M NPC); set-up: method as in doi:10.1200/JCO.2023.41.16_suppl.6026; settings: ongoing phase Ib/II study; cited from earlier work
[4] = 5 mg BID 14d-on/14d-off (N = 4)
[5] = 10 mg BID 14d-on/14d-off (N = 3)
[6] = 20 mg BID 14d-on/14d-off (N = 4)
[7] = 30 mg BID 14d-on/14d-off (N = 7)
[8] = 40 mg BID 14d-on/14d-off (N = 4)
[9] = 50 mg BID 14d-on/14d-off (N = 4)
[10] = 65 mg BID 14d-on/14d-off (N = 6)
[11] = 85 mg BID 14d-on/14d-off (N = 12)

Cc1cccc(-c2nn3c(c2-c2ccc4ncnn4c2/C=C/C(N)=O)CCC3)n1 [GFH018]
BOR: CR [1, 4]: 0 n (%) | BOR: NA (no postbaseline assessments after the start date) [1, 4]: 2 (50.0%) n (%) | BOR: NE (not estimable) [1, 4]: 0 n (%) | BOR: Non-CR/Non-PD [1, 4]: 0 n (%) | BOR: PD [1, 4]: 2 (50.0%) n (%) | BOR: PR [1, 4]: 0 n (%) | BOR: SD [1, 4]: 0 n (%) | DCR (90%CI) [1, 4]: 0 n (%) | ORR (90%CI) [1, 4]: 0 n (%) | BOR: CR [1, 5]: 0 n (%) | BOR: NA (no postbaseline assessments after the start date) [1, 5]: 0 n (%) | BOR: NE (not estimable) [1, 5]: 0 n (%) | BOR: Non-CR/Non-PD [1, 5]: 0 n (%) | BOR: PD [1, 5]: 2 (66.7%) n (%) | BOR: PR [1, 5]: 0 n (%) | BOR: SD [1, 5]: 1 (33.3%) n (%) | DCR (90%CI) [1, 5]: 1 (33.3%) (0.84%, 90.57%) n (%) | ORR (90%CI) [1, 5]: 0 n (%) | BOR: CR [1, 6]: 0 n (%) | BOR: NA (no postbaseline assessments after the start date) [1, 6]: 1 (25.0%) n (%) | BOR: Non-CR/Non-PD [1, 6]: 0 n (%) | BOR: PD [1, 6]: 1 (25.0%) n (%) | BOR: PR [1, 6]: 0 n (%) | BOR: SD [1, 6]: 1 (25.0%) n (%) | DCR (90%CI) [1, 6]: 1 (25.0%) (0.63%, 80.59%) n (%) | ORR (90%CI) [1, 6]: 0 n (%) | BOR: NE (not estimable) ([1]; 20 mg BID 14d-on/14d-off (N = 4), SD of insufficient duration): 1 (25.0%)^e n (%) | BOR: CR [1, 7]: 0 n (%) | BOR: NA (no postbaseline assessments after the start date) [1, 7]: 3 (42.9%) n (%) | BOR: NE (not estimable) [1, 7]: 0 n (%) | BOR: Non-CR/Non-PD [1, 7]: 0 n (%) | BOR: PD [1, 7]: 3 (42.9%) n (%) | BOR: PR [1, 7]: 0 n (%) | BOR: SD [1, 7]: 1 (14.3%) n (%) | DCR (90%CI) [1, 7]: 1 (14.3%) (0.36%, 57.87%) n (%) | ORR (90%CI) [1, 7]: 0 n (%) | BOR: CR [1, 8]: 0 n (%) | BOR: NA (no postbaseline assessments after the start date) [1, 8]: 1 (25.0%) n (%) | BOR: NE (not estimable) [1, 8]: 0 n (%) | BOR: Non-CR/Non-PD [1, 8]: 0 n (%) | BOR: PD [1, 8]: 3 (75.0%) n (%) | BOR: PR [1, 8]: 0 n (%) | BOR: SD [1, 8]: 0 n (%) | DCR (90%CI) [1, 8]: 0 n (%) | ORR (90%CI) [1, 8]: 0 n (%) | BOR: CR [1, 9]: 0 n (%) | BOR: NA (no postbaseline assessments after the start date) [1, 9]: 2 (50.0%) n (%) | BOR: NE (not estimable) [1, 9]: 0 n (%) | BOR: Non-CR/Non-PD [1, 9]: 0 n (%) | BOR: PD [1, 9]: 1 (25.0%) n (%) | BOR: PR [1, 9]: 0 n (%) | BOR: SD [1, 9]: 1 (25.0%) n (%) | DCR (90%CI) [1, 9]: 1 (25.0%) (0.63%, 80.59%) n (%) | ORR (90%CI) [1, 9]: 0 n (%) | BOR: CR [1, 10]: 0 n (%) | BOR: NA (no postbaseline assessments after the start date) [1, 10]: 0 n (%) | BOR: NE (not estimable) [1, 10]: 0 n (%) | BOR: Non-CR/Non-PD [1, 10]: 0 n (%) | BOR: PD [1, 10]: 5 (83.3%) n (%) | BOR: PR [1, 10]: 0 n (%) | BOR: SD [1, 10]: 1 (16.7%) n (%) | DCR (90%CI) [1, 10]: 1 (16.7%) (0.42%, 64.12%) n (%) | ORR (90%CI) [1, 10]: 0 n (%) | BOR: CR ([1]; 85 mg BID 7d-on/7d-off (N = 6)): 0 n (%) | BOR: NA (no postbaseline assessments after the start date) ([1]; 85 mg BID 7d-on/7d-off (N = 6)): 3 (50.0%) n (%) | BOR: NE (not estimable) ([1]; 85 mg BID 7d-on/7d-off (N = 6)): 0 n (%) | BOR: Non-CR/Non-PD ([1]; 85 mg BID 7d-on/7d-off (N = 6)): 0 n (%) | BOR: PD ([1]; 85 mg BID 7d-on/7d-off (N = 6)): 2 (33.3%) n (%) | BOR: PR ([1]; 85 mg BID 7d-on/7d-off (N = 6)): 0 n (%) | BOR: SD ([1]; 85 mg BID 7d-on/7d-off (N = 6)): 1 (16.7%) n (%) | DCR (90%CI) ([1]; 85 mg BID 7d-on/7d-off (N = 6)): 1 (16.7%) (0.42%, 64.12%) n (%) | ORR (90%CI) ([1]; 85 mg BID 7d-on/7d-off (N = 6)): 0 n (%) | BOR: CR [1, 11]: 0 n (%) | BOR: NA (no postbaseline assessments after the start date) [1, 11]: 5 (41.7%) n (%) | BOR: NE (not estimable) [1, 11]: 0 n (%) | BOR: Non-CR/Non-PD [1, 11]: 0 n (%) | BOR: PD [1, 11]: 4 (33.3%) n (%) | BOR: PR [1, 11]: 0 n (%) | BOR: SD [1, 11]: 3 (25.0%) n (%) | DCR (90%CI) [1, 11]: 3 (25.0%) (5.49%, 57.19%) n (%) | ORR (90%CI) [1, 11]: 0 n (%) | DCR ([1]; 85 mg BID, 14 d-on/14 d-off, twelve patients): 25.0% | median PFS ([1]; 85 mg BID, 14 d-on/14 d-off, twelve patients, 90% CI, 0.82–3.75): 1.8 months | complete response (CR) or partial response (PR) ([1]; 50 enrolled patients, 33 with at least one tumor assessment): No complete response (CR) or partial response (PR) was observed | BOR: CR ([1]; Total (N = 50)): 0 n (%) | BOR: NA (no postbaseline assessments after the start date) ([1]; Total (N = 50)): 17 (34.0%) n (%) | BOR: Non-CR/Non-PD ([1]; Total (N = 50)): 0 n (%) | BOR: PD ([1]; Total (N = 50)): 23 (46.0%) n (%) | BOR: PR ([1]; Total (N = 50)): 0 n (%) | BOR: SD ([1]; Total (N = 50)): 9 (18.0%) n (%) | DCR (90%CI) ([1]; Total (N = 50)): 9 (18.0%) (8.58%, 31.44%) n (%) | ORR (90%CI) ([1]; Total (N = 50)): 0 n (%) | BOR: NE (not estimable) ([1]; Total (N = 50), SD of insufficient duration): 1 (2.0%)^e n (%) | maximum target lesion decrease ([1]; one patient with thymic carcinoma, 65 mg BID): 18.4% | effect on TGF-β-induced SMAD3 phosphorylation [2]: ability to inhibit TGF-β-induced SMAD3 phosphorylation | efficacy in combination with toripalimab [3]: promising efficacy was shown
